Measurements from ChEMBL document CHEMBL1201862, “PubChem BioAssay data set” (2004).
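Interpolation was linear, between the two tested concentrations surrounding the appropriate level; five concentrations were tested over 48 hours in 96-well plates. Abbreviation: GI50, concentration required for 50% inhibition of growth.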 Activity calls are given as the source filed them. No stated cut-off is given here; in the data, active = GI50 up to about 1.1 µM and inactive = higher.

How the values were obtained:
Assay in all cases: DTP human tumour cell line panel, 48 h
UACC-62 = tested on: UACC-62
M14 = tested on: M14
OVCAR-8 = tested on: OVCAR-8
SN12C = tested on: SN12C
CCRF-CEM = tested on: CCRF-CEM
HCC 2998 = tested on: HCC 2998
OVCAR-3 = tested on: OVCAR-3
OVCAR-5 = tested on: OVCAR-5
CAKI-1 = tested on: CAKI-1
SR = tested on: SR
M19-MEL = tested on: M19-MEL
UO-31 = tested on: UO-31
KM12 = tested on: KM12
IGROV-1 = tested on: IGROV-1
HCT-15 = tested on: HCT-15
LOX IMVI = tested on: LOX IMVI
SNB-75 = tested on: SNB-75
UACC-257 = tested on: UACC-257
ACHN = tested on: ACHN
EKVX = tested on: EKVX
NCI-H23 = tested on: NCI-H23
A549 = tested on: A549
HOP-62 = tested on: HOP-62
SK-OV-3 = tested on: SK-OV-3
SK-MEL-2 = tested on: SK-MEL-2
HCT-116 = tested on: HCT-116
LXFL 529 = tested on: LXFL 529
RPMI-8226 = tested on: RPMI-8226
U-251 = tested on: U-251
SK-MEL-5 = tested on: SK-MEL-5
SF-539 = tested on: SF-539
HOP-92 = tested on: HOP-92
MOLT-4 = tested on: MOLT-4
TK-10 = tested on: TK-10
HOP-18 = tested on: HOP-18
NCI-H522 = tested on: NCI-H522
KM-20L2 = tested on: KM-20L2
OVCAR-4 = tested on: OVCAR-4
NCI-H460 = tested on: NCI-H460
SK-MEL-28 = tested on: SK-MEL-28
DMS-273 = tested on: DMS-273
HL-60 = tested on: HL-60
COLO 205 = tested on: COLO 205
HT-29 = tested on: HT-29
NCI-H226 = tested on: NCI-H226
Malme-3M = tested on: Malme-3M
A498 = tested on: A498
SF-268 = tested on: SF-268
SW-620 = tested on: SW-620
DLD-1 = tested on: DLD-1
SNB-78 = tested on: SNB-78
786-0 = tested on: 786-0
K562 = tested on: K562
RXF 393 = tested on: RXF 393
SF-295 = tested on: SF-295

Q: Which results are given for `CN(C)CC1CCCC(CN(C)C)C1OC(=O)c1ccccc1` (stereo not given)?
A: GI50 (UACC-62): > 100 µM (inactive); GI50 (M14): > 100 µM (inactive); GI50 (OVCAR-8): > 100 µM (inactive); GI50 (SN12C): > 100 µM (inactive); GI50 (CCRF-CEM): > 100 µM (inactive); GI50 (HCC 2998): > 100 µM (inactive); GI50 (OVCAR-3): > 100 µM (inactive); GI50 (OVCAR-5): > 100 µM (inactive); GI50 (CAKI-1): > 100 µM (inactive); GI50 (SR): > 100 µM (inactive); GI50 (M19-MEL): > 100 µM (inactive); GI50 (UO-31): > 100 µM (inactive); GI50 (KM12): > 100 µM (inactive); GI50 (IGROV-1): > 100 µM (inactive); GI50 (HCT-15): > 100 µM; GI50 (LOX IMVI): > 100 µM (inactive); GI50 (SNB-75): > 100 µM (inactive); GI50 (UACC-257): > 100 µM (inactive); GI50 (ACHN): > 100 µM (inactive); GI50 (EKVX): > 100 µM (inactive); GI50 (NCI-H23): > 100 µM (inactive); GI50 (A549): > 100 µM (inactive); GI50 (HOP-62): > 100 µM (inactive); GI50 (SK-OV-3): > 100 µM (inactive); GI50 (SK-MEL-2): > 100 µM (inactive); GI50 (HCT-116): > 100 µM (inactive); GI50 (LXFL 529): > 100 µM (inactive); GI50 (RPMI-8226): > 100 µM (inactive); GI50 (U-251): > 100 µM (inactive); GI50 (SK-MEL-5): > 100 µM (inactive); GI50 (SF-539): > 100 µM (inactive); GI50 (HOP-92): > 100 µM (inactive); GI50 (MOLT-4): > 100 µM (inactive); GI50 (TK-10): > 100 µM (inactive); GI50 (HOP-18): > 100 µM (inactive); GI50 (NCI-H522): > 100 µM (inactive); GI50 (KM-20L2): > 100 µM (inactive); GI50 (OVCAR-4): > 100 µM (inactive); GI50 (NCI-H460): > 100 µM (inactive); GI50 (SK-MEL-28): > 100 µM (inactive); GI50 (DMS-273): > 100 µM (inactive); GI50 (HL-60): > 100 µM (inactive); GI50 (COLO 205): > 100 µM (inactive); GI50 (HT-29): > 100 µM (inactive); GI50 (NCI-H226): > 100 µM (inactive); GI50 (Malme-3M): > 100 µM (inactive); GI50 (A498): > 100 µM (inactive); GI50 (SF-268): > 100 µM (inactive); GI50 (SW-620): > 100 µM (inactive); GI50 (DLD-1): > 100 µM (inactive); GI50 (SNB-78): > 100 µM (inactive); GI50 (786-0): > 100 µM (inactive); GI50 (K562): > 100 µM (inactive); GI50 (RXF 393): > 100 µM (inactive); GI50 (SF-295): > 100 µM (inactive)
